From patent US9078907B2, “Immunoregulator compounds” (Universita Degli Studi Di Roma “Tor Vergata”, priority 2001, dated 2015)

How the values were obtained:
H37Rv MTB = assay: Mycobacterial viability (CFU) in MTB infected monocyte derived macrophages; type: cell-based, Mycobacterium tuberculosis; conditions: MTB MOI 1:1, S1P 5 μM, 5 days after the infection, statistically significant
Procedure: In order to evaluate the bacterial viability, monocyte derived macrophages were infected for 3 hours with MTB at 1:1 macrophage/bacterium infection ratio and then treated with S1P (5 μM). At time 0(just after infection) and after 2 and 5 days the plates containing infected cellular cultures were centrifuged at 2000 RPM for 10 minutes and the supernatant was discarded. Then 1 ml PBS and 0.1% saponin were added to each well and the contents were incubated for 20 minute at 37° C. After incubation cellular lysates were sonicated for 20 seconds in such a way to break any possible bacterial aggregates. Lysates thus obtained were diluted in sterile saline 1:100, 1:1000, 1:10000 with addition of 0.01% Tween 80 and plated on Middlebrook 7H10 (Difco). Plates were incubated at 37° C. for about one month and colonies enumerated.
Based on the observations about the possible antimicrobial role of PLD and S1P during Mycobacterium tuberculosis infection it was investigated whether S1P macrophage exogenous stimulation and PLD activation were associated to a reduction of mycobacterial viability. To that object, monocytes were infected for three hours with H37Rv MTB at a multiplicity of infection of 1 bacillus for 1 cell. […]

Mycobacterium smegmatis = assay: Colony forming units of M. smegmatis in differentiated THP-1 cells; type: cell-based; conditions: THP-1 macrophage cell line, MOI 50:1, 5 μM, 1, 12 and 24 hours
Procedure: Human monocytic THP-1 leukemia line cells were used in this example as a model for macrophage response. In order to obtain macrophage phenotype, 5×10^5/ml THP-1 cells were induced to differentiate by 48 hours incubation in the presence of 20 ng/ml Phorbol Myristate Acetate (PMA). Differentiated THP-1 cells (dTHP-1) were then centrifuged three times and suspended in complete medium [RPMI 1640 (Gibco BRL) supplemented with 10% fetal bovine serum (Gibco BRL), 5 mM L-glutamine (Invitrogen), 1 mM sodium pyruvate (Gibco BRL) and non-essential amino acids (Euroclone)]. dTHP-1 were then infected for 3 hours with M. smegmatis at the multiplicity of infection of bacterium/cell 50:1. Following infection cells were washed three times with RPMI 1640 and incubated in complete medium at 37° C. for further 1, 12 and 24 hours in the presence or absence of sphingosine-1 phosphate used at the concentration of 5 μM.
In order to assess the role of macrophage PLD activity in sphingosine 1-phosphate induced mycobacterial growth control, following the infection the cells were cultured in the presence of various concentrations of ethanol (0.3%, 0.03%, 0.003%) or 10 nM calphostin C. […] Inhibiting activity of calphostin C is exploited by targeting PLD catalytic domain (Sciorra V. A., Hammond S. M., Morris A. J. Potent direct inhibition of mammalian phospholipase D isoenzymes by calphostin c. Biochemistry 2001; 40: 2640-46). Just after the infection and at the indicated time points, cells were 1) lysed using cold PBS containing 0.1% saponin (Sigma, MA, USA), ii) serially diluted in PBS containing 0.01% Tween-80 (Merck, Darmstadt, Germany) and iii) plated in triplicate in Middlebrook 7H10 medium (Becton Dickinson, MD, USA) supplemented with 10% OADC formulation (0.5 mg/ml oleic acid, 50 mg/ml albumin, 20 mg/ml dextrose, 0.04 mg/ml catalase and 8.5 mg/ml sodium chloride). M. smegmatis colonies were enumerated after incubation for 3 days at 37° C.

macrophages = assay: ROI generation by dichlorofluorescein (DCF) flow cytometry; type: cell-based, human
Procedure: Because dichloro fluorescein (DCF) is a fluorochrome obtained from reaction of non fluorescent 2, 7-dichloro fluorescein diacetate (DCFH) with various oxidants, analysis thereof is used to detect cellular oxidative stress and amount of oxygen reactive intermediates (ROI) produced by phagocytic cells. In the used model, this analysis is employed in order to monitor the D-erythro-sphingosine 1-phosphate (S1P) modulated ROI production from macrophages. Macrophages were incubated for 90 minutes with sphingosine 1-phosphate at 0.5 μM, 5 μM, 10 μM and 50 μM concentrations. After the incubation 100 μl of 0.4 μM DCFH (Calbiochem) were added and incubated for at least 30 minutes. Finally, cells were washed with PBS and analysed using FACScan flow cytometer from Becton Dickinson.

[1] = tested on: Mycobacterium tuberculosis; assay: Dose dependent effect of S1P on MTB replication in macrophages from peripheral blood monocytes; type: cell-based; conditions: human monocyte-derived macrophages, 4 donors, 0.5, 5 or 50 μM, fifth day after infection
Procedure: Peripheral blood mononuclear cells were isolated from human Buffy coat blood preparations by gradient centrifugation and suspended at 5×10^6/ml in complete medium [RPMI 1640 (Gibco BRL) supplemented with 10% fetal bovine serum (Gibco BRL), 5 mM L-glutamine and Gentamicine (5 μg/ml)]. Monocytes were then separated by adherence for 1 hour in polystyrene 75 cm^2 flasks (Corning, Cambridge, Mass.). After incubation, non-adherent cells were removed by three washes with warm RPMI 1640. […] Finally, adherent monocytes were collected after 15 minute incubation at 4° C. in the presence of 5 mM EDTA in PBS. Cells then were washed, incubated in complete medium for 5-7 days in 24 well plate at the concentration of 10^6 cells/ml to get monocyte-derived macrophages. […]
Sphingosine 1-phosphate (S-1P), used at the concentrations of 0.5, 5 or 50 μM inhibits intracellular replication of Mycobacterium tuberculosis in human monocyte-derived macrophages (MDM) from peripheral blood of healthy donors. Results are obtained from experiments performed on MDM from 4 different donors and are expressed as the means of the percentages of mycobacterial killing±standard error at the fifth day after infection. Percentage of mycobacterial killing is calculated by using the following formula: [1−(CFU from infected and S-1P stimulated MDM/CFU from infected unstimulated MDM)]×100.

CCCCCCCCCCCCC/C=C/[C@@H](O)[C@@H](N)COP(=O)(O)O [S1P, D-erythro-sphingosine 1-phosphate]
CFU number after S1P treatment (H37Rv MTB): reduced
intracellular replication of Mycobacterium smegmatis (CFU) (Mycobacterium smegmatis): inhibits
ROI production by macrophages over the time (macrophages; 5 μM S1P, DCF positive response after 30 and 90 minutes): increases progressively over the time
S1P dose giving maximum DCF positive response (macrophages; scalar S1P doses, % DCF positive cells): 5-10 μm
intracellular replication of Mycobacterium tuberculosis (percentage of mycobacterial killing) [1]: inhibits
